Experimental data reported in US6545002B1 (University of Virginia Patent Foundation, priority 1999, dated 2003).
Like-named read-outs stand apart in the source and are kept apart here.

What was measured:
rat A2A receptors (rA2A) = molecular target: T1, rat A2A receptors (rA2A) (Rattus norvegicus, UniProt P30543); experiment: Displacement of [3H]CGS 21680 binding in rat striatal membranes; conditions: for Ki: read-out: rA2A Ki or IC50
T1 construct: to A2A receptors from rat striatal membranes was performed as described; from tissue; host or cells: rat striatal membranes
Experimental: (§1) Bruns, R. F. et al., Naunyn-Schmiedeberg's Arch. […] Binding of [^3H]R-N^6-phenylisopropyladenosine. Schwabe, U. et al., Naunyn-Schmiedeberg's Arch. […] (Dupont NEN, Boston, Mass.) to A2A receptors from rat striatal membranes was performed as described. […] All non-radioactive compounds were initially dissolved in DMSO, and diluted with buffer to the final concentration, where the amount of DMSO never exceeded 2%. Incubations were terminated by rapid filtration over Whatman GF/B filters, using a Brandell cell harvester (Brandell, Gaithersburg, Md.). The tubes were rinsed three times with 3 mL buffer each.
(§2) At least six different concentrations of competitor, spanning 3 orders of magnitude adjusted appropriately for the IC50 of each compound, were used. IC50 values, calculated with the nonlinear regression method implemented in (Graph-Pad Prism, San Diego, Calif.), were converted to apparent Ki values as described. Linden, J., J. Cycl. Nucl.

[1] = molecular target: T2, human A2B receptors (hA2B) (Homo sapiens, UniProt P29275); experiment: Radioligand binding ([125I]ABOPX / [3H]ZM241385) at human A2B receptors expressed in HEK-293 cells; conditions: for Ki: read-out: hA2B Ki or IC50
T2 construct: expressed in transfected cells; host or cells: HEK-293 (HEK-A2B, G418-selected)
T2 sequence (P29275 1-332): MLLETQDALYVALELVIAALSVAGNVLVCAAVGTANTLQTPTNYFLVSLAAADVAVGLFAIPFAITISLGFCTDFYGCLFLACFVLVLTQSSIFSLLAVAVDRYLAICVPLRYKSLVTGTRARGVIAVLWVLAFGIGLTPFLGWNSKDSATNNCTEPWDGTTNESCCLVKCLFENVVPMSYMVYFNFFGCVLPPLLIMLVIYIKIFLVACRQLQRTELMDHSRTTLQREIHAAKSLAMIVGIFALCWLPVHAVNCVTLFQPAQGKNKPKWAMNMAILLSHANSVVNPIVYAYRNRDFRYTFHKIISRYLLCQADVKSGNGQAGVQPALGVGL

rat A1 receptors (rA1) = molecular target: T3, rat A1 receptors (rA1) (Rattus norvegicus, UniProt P25099); experiment: Displacement of [3H]R-PIA binding in rat brain (cerebral cortical) membranes; conditions: for Ki: read-out: rA1 Ki or IC50
T3 construct: to A1 receptors from rat cerebral cortical membranes; from tissue; host or cells: rat cerebral cortical (brain) membranes
T3 sequence (P25099 1-326): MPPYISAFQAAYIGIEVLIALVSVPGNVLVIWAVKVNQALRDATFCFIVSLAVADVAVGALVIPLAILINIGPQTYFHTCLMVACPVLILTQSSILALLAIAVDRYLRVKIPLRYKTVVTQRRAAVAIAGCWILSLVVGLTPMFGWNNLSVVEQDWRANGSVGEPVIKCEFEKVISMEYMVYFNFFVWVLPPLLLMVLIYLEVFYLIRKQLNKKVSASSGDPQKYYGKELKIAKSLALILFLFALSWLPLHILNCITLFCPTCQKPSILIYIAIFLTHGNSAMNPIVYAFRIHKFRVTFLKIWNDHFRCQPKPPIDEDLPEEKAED
Experimental: as §1, §2

human A3 receptors (hA3) = molecular target: T4, human A3 receptors (hA3) (Homo sapiens, UniProt P0DMS8); experiment: Displacement of [125I]ABA binding at human A3 receptors expressed in HEK-293 cells; conditions: Table 1; [125I]ABA, HEK-293; read-out: hA3 Ki or IC50
T4 construct: expressed in transfected cells; host or cells: HEK-293
T4 sequence (P0DMS8 1-318): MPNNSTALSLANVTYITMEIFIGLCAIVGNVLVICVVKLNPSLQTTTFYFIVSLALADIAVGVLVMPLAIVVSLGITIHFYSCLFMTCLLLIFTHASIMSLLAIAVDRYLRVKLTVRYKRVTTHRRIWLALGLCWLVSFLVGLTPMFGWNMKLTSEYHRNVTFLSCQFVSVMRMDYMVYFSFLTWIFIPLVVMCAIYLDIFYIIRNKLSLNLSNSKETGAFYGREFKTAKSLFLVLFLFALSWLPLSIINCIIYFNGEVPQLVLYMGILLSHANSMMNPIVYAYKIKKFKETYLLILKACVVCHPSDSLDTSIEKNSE

[2] = molecular target: T5, recombinant human A1 receptors (hA1) (Homo sapiens, UniProt P30542); experiment: Radioligand binding ([3H]CPX) at recombinant human A1 receptors in HEK-293 cells; conditions: read-out: hA1 Ki, values marked (h); Table 1; recombinant human A1, HEK 293
T5 sequence (P30542 1-326): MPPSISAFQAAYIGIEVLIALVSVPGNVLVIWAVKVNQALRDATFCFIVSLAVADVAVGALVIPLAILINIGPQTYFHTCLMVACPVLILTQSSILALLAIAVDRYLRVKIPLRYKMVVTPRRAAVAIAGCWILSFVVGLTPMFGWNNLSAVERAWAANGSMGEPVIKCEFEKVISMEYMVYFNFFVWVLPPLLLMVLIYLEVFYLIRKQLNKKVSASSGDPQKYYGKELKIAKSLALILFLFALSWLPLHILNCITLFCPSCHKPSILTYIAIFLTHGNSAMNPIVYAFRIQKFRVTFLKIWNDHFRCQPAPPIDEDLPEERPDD
Experimental: (§3) The potency of the xanthine derivatives at human A2B receptors was evaluated using two binding assays. […] In order to determine selectivity, the xanthines were evaluated using standard binding assays at A1, A2A, and A3 receptors.

[3] = molecular target: recombinant human A2A receptors (hA2A) (Homo sapiens, UniProt P29274); experiment: Radioligand binding (125I-ZM241385) at recombinant human A2A receptors in HEK-293 cells; conditions: read-out: hA2A Ki, values marked (h); Table 1; recombinant human A2A, HEK 293
Experimental: as §3

[4] = Table 1, [3H]R-PIA, rat brain membranes
[5] = Table 1, [3H]CGS 21680, rat striatal membranes

T1 sequence (P30543 whole entry): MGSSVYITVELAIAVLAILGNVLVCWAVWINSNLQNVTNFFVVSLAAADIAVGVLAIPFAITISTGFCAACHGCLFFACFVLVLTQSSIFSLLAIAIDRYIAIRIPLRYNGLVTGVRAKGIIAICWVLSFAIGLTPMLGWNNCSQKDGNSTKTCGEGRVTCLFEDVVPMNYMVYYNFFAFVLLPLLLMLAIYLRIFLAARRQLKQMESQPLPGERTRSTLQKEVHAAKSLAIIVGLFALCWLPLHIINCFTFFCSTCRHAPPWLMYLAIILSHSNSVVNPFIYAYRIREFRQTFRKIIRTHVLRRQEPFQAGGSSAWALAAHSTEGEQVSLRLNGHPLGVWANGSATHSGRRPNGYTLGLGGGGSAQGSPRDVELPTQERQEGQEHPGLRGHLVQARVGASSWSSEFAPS
Chain of recombinant human A2A receptors (hA2A) (P29274 whole entry): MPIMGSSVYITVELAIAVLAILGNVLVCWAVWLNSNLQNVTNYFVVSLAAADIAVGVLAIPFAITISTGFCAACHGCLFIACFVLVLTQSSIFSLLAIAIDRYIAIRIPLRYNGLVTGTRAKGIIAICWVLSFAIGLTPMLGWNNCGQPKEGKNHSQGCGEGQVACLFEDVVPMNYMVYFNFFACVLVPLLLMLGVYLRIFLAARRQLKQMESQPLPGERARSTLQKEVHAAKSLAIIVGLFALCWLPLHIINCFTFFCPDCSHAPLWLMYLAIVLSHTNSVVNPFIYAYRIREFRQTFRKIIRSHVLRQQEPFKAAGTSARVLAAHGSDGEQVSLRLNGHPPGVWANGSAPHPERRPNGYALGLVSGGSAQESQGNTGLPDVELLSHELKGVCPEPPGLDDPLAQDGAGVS

| melting point [°C] | Ki (rat A2A receptors (rA2A); Table 2) [nM] | Ki ([1]; Table 2) [nM] | Ki (rat A1 receptors (rA1); Table 2) [nM] | SMILES | further results |
| --- | --- | --- | --- | --- | --- |
| 284 |  |  |  | CC(=O)c1ccccc1NC(=O)COc1ccc(-c2nc3c([nH]2)c(=O)n(Cc2ccccc2)c(=O)n3Cc2ccccc2)cc1 [Compound 38, 8-[4-[((2-Acetylphenyl)carbamoylmethyl)oxy]phenyl]-1,3-dibenzyl-xanthine] |  |
|  | 63.3 ± 20.4 | 3.71 ± 0.76 | 5.88 ± 1.06 | CCCn1c(=O)c2[nH]c(-c3ccc(OCC(=O)Nc4ccc(O)cc4)cc3)nc2n(CCC)c1=O [Compound 26] |  |
| 308 to 309 |  |  |  | CC(=O)c1ccccc1NC(=O)/C=C/c1ccc(-c2nc3c([nH]2)c(=O)n(Cc2ccccc2)c(=O)n3Cc2ccccc2)cc1 (hydrate or solvate) [Compound 37, 8-[4-(2-(2-Acetylphenyl)carbamoyl-trans-vinyl)phenyl]-1,3-dibenzylxanthine] |  |
|  | 126 ± 38 | 1.88 ± 0.76 | 17.5 ± 5 | CCCn1c(=O)c2[nH]c(-c3ccc(OCC(=O)Nc4ccc(C)cc4)cc3)nc2n(CCC)c1=O [Compound 25] |  |
| 305 |  |  |  | CC(=O)c1ccccc1NC(=O)/C=C/c1ccc(-c2nc3c([nH]2)c(=O)n(CC2CCCCC2)c(=O)n3CC2CCCCC2)cc1 [Compound 36, 8-[4-(2-(2-Acetylphenyl)carbamoyl-trans-vinyl)phenyl]-1,3-di-(cyclohexylmethyl)xanthine] |  |
| > 310 | 220 ± 79 | 16.1 ± 4.7 | 145 ± 28 | CCCn1c(=O)c2[nH]c(-c3ccc(OCC(=O)Nc4ccc(C(=O)O)cc4)cc3)nc2n(CCC)c1=O [Compound 24, 8-[4-[((4-Carboxy)phenylcarbamoylmethyl)oxy]phenyl]-1,3-di-(n-propyl)xanthine] |  |

Continued, molecule first:

| SMILES | melting point [°C] | Ki (rat A2A receptors (rA2A); Table 2) [nM] | Ki ([1]; Table 2) [nM] | Ki (rat A1 receptors (rA1); Table 2) [nM] | further results |
| --- | --- | --- | --- | --- | --- |
| O=C(O)COc1ccc(-c2nc3c([nH]2)c(=O)n(Cc2ccccc2)c(=O)n3Cc2ccccc2)cc1 [Compound 7, 8-[4-[(Carboxymethyl)oxy]phenyl]-1,3-dibenzyl-xanthine] | > 310 |  |  |  | rA2A % displacement of specific binding (rat A2A receptors (rA2A); Table 1, at 100,000 nM): 25 ± 3%; Ki ([1]; Table 1, [125I]ABOPX, HEK-293): 1760 nM; Ki (rat A1 receptors (rA1); [4]): 679 ± 190 nM |
| CCCn1c(=O)c2[nH]c(-c3ccc(OCC(=O)Nc4ccc(C(=O)NC)cc4)cc3)nc2n(CCC)c1=O [Compound 23, 8-[4-[((4-Methylcarbamoyl)phenylcarbamoylmethyl)oxy]phenyl]-1,3-di-(n-propyl)xanthine] | > 310 | 98.1 ± 49.6 | 3.34 ± 0.51 | 24.8 ± 1.8 |  |
| CCn1c(=O)c2[nH]c(-c3ccc(OCC(=O)Nc4ccc(C)cc4)cc3)nc2n(CC)c1=O [Compound 39] |  |  |  |  | Ki (rat A2A receptors (rA2A); Table 3): 71.1 ± 7.7 nM; Ki ([1]; Table 3): 1.78 ± 0.43 nM; Ki (rat A1 receptors (rA1); Table 3): 34.9 ± 0.3 nM |
| O=C(O)C=Cc1ccc(-c2nc3c([nH]2)c(=O)n(CC2CCCCC2)c(=O)n3CC2CCCCC2)cc1 [Compound 9] |  |  |  |  | Ki ([1]; Table 1, [125I]ABOPX, HEK-293): 199 ± 52 nM; Ki (human A3 receptors (hA3)): 922 ± 399 nM; Ki [2]: 4890 nM; Ki (rat A1 receptors (rA1); [4]): 602 ± 24 nM |
| CCCn1c(=O)c2[nH]c(-c3ccc(OCC(=O)N(C)c4ccccc4)cc3)nc2n(CCC)c1=O [Compound 16, 8-[4-[(N-Methyl-N-phenylcarbamoylmethyl)oxy]phenyl]-1,3-di-(n-propyl)xanthine] | 215 | 497 ± 250 | 5.42 ± 1.71 | 218 ± 80 | selectivity for human A2B versus rat A1 receptors [1]: 40 fold; selectivity for human A2B versus rat A2A receptors [1]: 92 fold; reduction of affinity by N-methylation ([1]; N-methyl anilide versus anilide, human A2B): 3.7 fold |
| CCCn1c(=O)c2[nH]c(-c3ccc(OCC(=O)NC(c4ccccc4)c4ccccc4)cc3)nc2n(CCC)c1=O [Compound 14, 8-[4-[(Diphenylmethylcarbamoylmethyl)oxy]phenyl]-1,3-di-(n-propyl)xanthine] | 269 to 270 |  | 33.7 ± 17 | 120 ± 21 | rA2A % displacement (rat A2A receptors (rA2A); Table 2, at (1000)): 20 ± 8% |
| O=C(O)/C=C/c1ccc(-c2nc3c([nH]2)c(=O)n(Cc2ccccc2)c(=O)n3Cc2ccccc2)cc1 [Compound 10, 8-(4-(2-Carboxy-trans-vinyl)phenyl)-1,3-dibenzyl-xanthine] | > 310 |  |  |  | Ki (rat A2A receptors (rA2A); [5]): 4450 nM; Ki ([1]; Table 1, [125I]ABOPX, HEK-293): 469 ± 23 nM; Ki (rat A1 receptors (rA1); [4]): 201 ± 23 nM |
| CCCn1c(=O)c2[nH]c(-c3ccc(OCC(N)=O)cc3)nc2n(CCC)c1=O [Compound 11] |  | 76.3 ± 14 |  | 20 ± 3.8 | more potent than the carboxylic acid 4a at A2A receptors (rat A2A receptors (rA2A); relative to 4a): 29 fold; potency versus the carboxylic acid 4a at A2B receptors ([1]; relative to 4a): equipotent; more potent than the carboxylic acid 4a at A1 receptors (rat A1 receptors (rA1); relative to 4a): 3 fold |
| CCCn1c(=O)c2[nH]c(-c3ccc(C=CC(=O)O)cc3)nc2n(CCC)c1=O [Compound 8] |  |  |  |  | Ki [3]: 190 ± 71 nM; Ki (rat A2A receptors (rA2A); [5]): 800 nM; Ki ([1]; Table 1, [125I]ABOPX, HEK-293): 60 ± 2 nM; Ki (human A3 receptors (hA3)): 30 ± 14 nM; Ki [2]: 140 ± 3 nM |
| CCCn1c(=O)c2[nH]c(-c3ccc(OCC(=O)Nc4ccc(C(N)=O)cc4)cc3)nc2n(CCC)c1=O [Compound 22, 8-[4-[((4-Carbamoyl)phenylcarbamoylmethyl)oxy]phenyl]-1,3-di-(n-propyl)xanthine] | > 310 | 683 ± 167 | 7.75 ± 1.11 | 10.2 ± 2.5 |  |
| CCCn1c(=O)c2[nH]c(-c3ccc(OCC(=O)ON4C(=O)CCC4=O)cc3)nc2n(CCC)c1=O [Compound 4b] |  |  |  |  | Ki (rat A2A receptors (rA2A); [5]): 127 nM; Ki ([1]; Table 1, [125I]ABOPX, HEK-293): 9.75 ± 4.8 nM; Ki (human A3 receptors (hA3)): 227 nM; Ki (rat A1 receptors (rA1); [4]): 153 nM |
| CCCn1c(=O)c2[nH]c(-c3ccc(OCC(=O)N(CC(=O)OCC)CC(=O)OCC)cc3)nc2n(CCC)c1=O [Compound 17, 8-[4-[(N,N-bis(Ethoxycarbonylmethyl)carbamoylmethyl)oxy]-phenyl]-1,3-di-(n-propyl)xanthine] | 225 | 999 ± 144 | 43.4 ± 8.4 | 26.8 ± 2.4 |  |
